Measurements: patent publication US20250296971A1, “GASTRIC INHIBITORY PEPTIDE RECEPTOR LIGANDS” (priority 2021, published 2025)
*1 amine or outer side, *2 acyl side, *3 side chain or, on linkers, in order; H or OH if unused. Where a SMILES comes first, the peptide text is derived from it. Bridges are numbered along the chain shown (N, C = ends). [ ]: non-standard residue; d: D form. The star is where a group is joined. X5 = NC(=O)[C@H](CCCCNC(=O)CN1CCN(CC(=O)O)CCN(CC(=O)O)CCN(CC(=O)O)CC1)NC(=O)CCC(=O)NCCCOCCOCCOCCCN*; NH(CH2)5NHDOTA = O=C(O)CN1CCN(CC(=O)O)CCN(CC(=O)NCCCCCN*)CCN(CC(=O)O)CC1; NH(1-deoxy-D-glucityl) = OC[C@@H](O)[C@@H](O)[C@H](O)[C@@H](O)CN*; DOTA = O=C(O)CN1CCN(CC(=O)O)CCN(CC(=O)*)CCN(CC(=O)O)CC1; Trp(5-Br) = N[C@@H](Cc1c[nH]c2ccc(Br)cc12)C(=O)O; Trp(5-Cl) = N[C@@H](Cc1c[nH]c2ccc(Cl)cc12)C(=O)O; Pyridine(2,6-diCH2) = c1cc(C[*:1])nc(C[*:2])c1; mXylylene = c1cc(C[*:1])cc(C[*:2])c1; Glutaryl = O=C(CCCC(=O)[*:2])[*:1]; Hyp = O=C(O)[C@@H]1C[C@@H](O)CN1; X1 = O=C(CN1CCC(N[*:1])CC1)[*:2]; Suc = O=C(CCC(=O)[*:2])[*:1]; hSer = N[C@@H](CCO)C(=O)O; Api = NC1(C(=O)O)CCNCC1; Thp = NC1(C(=O)O)CCOCC1; Aib = CC(C)(N)C(=O)O

Legend:
[1] = target: T1, human GIP receptor (bioGIPR) (Homo sapiens, UniProt P48546); test: Surface plasmon resonance (SPR) based binding assay; details: Single Cycle Kinetic mode, 25° C.; for t1/2 Category: SPR dissociation half-life; for Kd: SPR, 1:1 Langmuir binding model, read-out: pKD Category (converted)
T1 construct: Biotinylate extracellular of the human GIP receptor (bioGIPR, Proteros biostructures GmbH, lot #02/2b); purchased Proteros biostructures GmbH lot #02/2b
T1 sequence (P48546 22-138 limits assumed): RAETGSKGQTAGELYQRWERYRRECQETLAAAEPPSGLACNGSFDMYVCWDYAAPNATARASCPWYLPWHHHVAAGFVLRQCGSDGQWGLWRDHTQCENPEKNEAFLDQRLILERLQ
How it was run: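 Binding was measured at 25 °C by single-cycle kinetics against a reference flow cell, with blank-run and drift correction, after capturing biotinylated GIPR extracellular domain to ~3500 RU. Running buffer: HBST, 0.1% DMSO. A 1:1 Langmuir model gave kinetic rates, KD, t1/2 and pKD.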

[2] = target: T2, GIPR (CHO-K1-hGIPR cells) (Homo sapiens, UniProt P48546); test: FACS binding assay; details: competition with 20 nM GIP-057, 4° C., 1 hour, read-out: pIC50 Category (converted)
T2 construct: host or cells: CHO-K1
T2 sequence (P48546 22-466): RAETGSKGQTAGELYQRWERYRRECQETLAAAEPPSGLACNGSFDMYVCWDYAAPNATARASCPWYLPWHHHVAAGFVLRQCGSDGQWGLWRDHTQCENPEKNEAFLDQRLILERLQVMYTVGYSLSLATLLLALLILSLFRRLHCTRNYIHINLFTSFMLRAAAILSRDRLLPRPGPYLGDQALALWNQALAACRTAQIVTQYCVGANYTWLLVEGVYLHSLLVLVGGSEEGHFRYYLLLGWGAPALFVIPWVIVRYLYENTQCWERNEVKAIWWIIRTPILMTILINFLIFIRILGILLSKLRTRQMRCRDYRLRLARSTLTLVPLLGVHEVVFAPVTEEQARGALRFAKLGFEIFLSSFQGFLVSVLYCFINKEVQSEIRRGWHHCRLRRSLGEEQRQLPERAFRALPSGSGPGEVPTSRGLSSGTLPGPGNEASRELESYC
How it was run: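 Median fluorescence in the APC channel, measured on washed CHO-K1 cells overexpressing human GIPR, was fitted by four-parameter logistic regression against peptide concentration to yield EC50 or IC50 values. Secondary labelling used APC-streptavidin (1 μg/mL, 30 min, ice).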

t1/2 Category [1] | Kd [1] [nM] | IC50 [2] [nM] | SMILES
A (t1/2 values>15 min) | < 1 | < 10 | CC[C@H](C)[C@@H]1NC(=O)[C@H](CC(C)C)NC(=O)C2(CCOCC2)NC(=O)[C@@H](NC(=O)[C@@H](CC(C)C)NC(=O)[C@H](CCC(=O)O)NC(=O)[C@@H]2C[C@@H](O)CN2C(=O)[C@H](Cc2c[nH]c3ccc(Br)cc23)NC(=O)[C@H](Cc2c[nH]c3ccccc23)NC(=O)[C@H](CCO)NC(C)=O)CSCc2cccc(n2)CSC[C@@H](C(N)=O)NC1=O [GIP-197, Ac-Hse-Trp-5Brw-Hyp-Glu-leu-[Cys(2Lut)-Thp-Leu-Ile-Cys]-NH2] (Ac-[hSer]W[Trp(5-Br)][Hyp]E[dL]C[Thp]LIC-NH2; linker 7-11 via Pyridine(2,6-diCH2))
A (t1/2 values>15 min) | < 1 | < 10 | CC[C@H](C)[C@@H]1NC(=O)[C@H](CC(C)C)NC(=O)C(C)(C)NC(=O)[C@@H](NC(=O)[C@@H](CC(C)C)NC(=O)[C@H](CCC(=O)O)NC(=O)[C@@H]2CCCN2C(=O)[C@H](Cc2c[nH]c3ccc(Cl)cc23)NC(=O)[C@H](Cc2c[nH]c3ccccc23)NC(=O)[C@H](CC(=O)O)NC(C)=O)CSCc2cccc(c2)CSC[C@@H](C(=O)NCCCOCCOCCOCCCNC(=O)CCC(=O)N[C@@H](CCCCNC(=O)CN2CCN(CC(=O)O)CCN(CC(=O)O)CCN(CC(=O)O)CC2)C(N)=O)NC1=O [GIP-079, Ac-Asp-Trp-5Clw-Pro-Glu-leu-[Cys(3MeBn)-Aib-Leu-Ile-Cys]-Ttds-Lys(DOTA)-NH2] (Ac-DW[Trp(5-Cl)]PE[dL]C[Aib]LIC-X5; linker 7-11 via mXylylene)
A (t1/2 values>15 min) | 1 to 7.94 | < 10 | CC[C@H](C)[C@@H]1NC(=O)[C@H](CC(C)C)NC(=O)C2(CCOCC2)NC(=O)[C@@H](NC(=O)[C@@H](CC(C)C)NC(=O)[C@H](CCC(=O)O)NC(=O)[C@@H]2C[C@@H](O)CN2C(=O)[C@H](Cc2c[nH]c3ccc(Cl)cc23)NC(=O)[C@H](Cc2c[nH]c3ccccc23)NC(=O)[C@H](CC(=O)O)NC(=O)CN2CCC(NC(=O)CN3CCN(CC(=O)O)CCN(CC(=O)O)CCN(CC(=O)O)CC3)CC2)CNCc2cccc(n2)CSCCNC1=O [GIP-106, DOTA-APAc-Asp-Trp-5Clw-Hyp-Glu-leu-[Dap(2Lut)-Thp-Leu-Ile-AET]]
A (t1/2 values>15 min) | < 1 | < 10 | CC[C@H](C)[C@@H]1NC(=O)[C@H](CC(C)C)NC(=O)C2(CCOCC2)NC(=O)[C@@H](NC(=O)[C@@H](CC(C)C)NC(=O)[C@H](CCC(=O)O)NC(=O)[C@@H]2C[C@@H](O)CN2C(=O)[C@H](Cc2c[nH]c3ccc(Cl)cc23)NC(=O)[C@H](Cc2c[nH]c3ccccc23)NC(=O)CCC(=O)O)CSCc2cccc(n2)CSC[C@@H](C(=O)NCCCCCNC(=O)CN2CCN(CC(=O)O)CCN(CC(=O)O)CCN(CC(=O)O)CC2)NC1=O [GIP-117, HO-Succinyl-Trp-5Clw-Hyp-Glu-leu-[Cys(2Lut)-Thp-Leu-Ile-Cys]-Ape-DOTA] (Suc-W[Trp(5-Cl)][Hyp]E[dL]C[Thp]LIC-{NH(CH2)5NHDOTA}; linker 6-10 via Pyridine(2,6-diCH2))
D (t1/2<2.0 min) | 1 to 7.94 | 10 to 79.4 | CC[C@H](C)[C@@H]1NC(=O)[C@H](CC(C)C)NC(=O)C2(CCN(C(=O)CN3CCN(CC(=O)O)CCN(CC(=O)O)CCN(CC(=O)O)CC3)CC2)NC(=O)[C@@H](NC(=O)[C@@H](CC(C)C)NC(=O)[C@H](CCC(=O)O)NC(=O)[C@@H]2C[C@@H](O)CN2C(=O)[C@H](Cc2c[nH]c3ccc(Cl)cc23)NC(=O)[C@H](Cc2c[nH]c3ccccc23)NC(=O)[C@H](CCO)NC(=O)CN2CCC(NC(=O)CCCC(=O)NC[C@H](O)[C@@H](O)[C@H](O)[C@H](O)CO)CC2)CSCc2cccc(n2)CSC[C@@H](C(=O)NC2CCN(CC(=O)N[C@H](CCC(=O)NC[C@H](O)[C@@H](O)[C@H](O)[C@H](O)CO)C(N)=O)CC2)NC1=O [GIP-049, AGLU-Glutar-APAc-Hse-Trp-5Clw-Hyp-Glu-leu-[Cys(2Lut)-Apc(DOTA)-Leu-Ile-Cys]-APAc-glu(AGLU)-NH2] ({NH(1-deoxy-D-glucityl)-Glutaryl}-[X1][hSer]W[Trp(5-Cl)][Hyp]E[dL]C[Api](DOTA)LIC[X1][dE](NH(1-deoxy-D-glucityl))-NH2; linker 8-12 via Pyridine(2,6-diCH2))
